Test results from US20250269036A1, “METHODS FOR ENHANCEMENT OF ENGINEERED CELL THERAPIES IN CANCER TREATMENT” (PURDUE RESEARCH FOUNDATION, priority 2021, published 2025).

Assays:
[1] = test system: IL-4, IL-6 plus IL-13 stimulated THP-1 cells (M2-like macrophages); assay: Reprogramming of M2-polarized THP-1 macrophages, marker mRNA by qPCR; type: cell-based, human
Experimental: THP-1 cells were initially selected as a model system because this human monocytic cell line is known to acquire an M2-like phenotype and produce significant quantities of anti-inflammatory cytokines upon stimulation with IL-4, IL-6 plus IL-13.
THP-1 cells were seeded into 96-well plates at a density of 60,000 cells/well. Cells were differentiated into unpolarized macrophages by 48 hours incubation with 200 nM PMA followed by 24 hours incubation in fresh RPMI medium. […] Cultures were maintained at 37° C. in a humidified 5% CO2 incubator.
Total RNA was isolated from 1×10^5-2×10^5 macrophages using a Quick-RNATM MicroPrep kit (Zymo Research, Irvine, CA) according to the manufacturer-recommended protocol. […] IL-6, CXCL10, IFNα, IFN-γ and CD86 were used as markers for an M1 phenotype, while CCL18, CD206, CD163 and Arg1 were employed as markers for the M2 phenotype. IL-1β, PDGFβ, MMP9 and TIMP 3 were measured as indicators of an anti-inflammatory phenotype. IRAK-4 was used as an indicator of TLR7 stimulation. To control for specificity of the amplification products, a melting curve analysis was performed. […] Each sample was analyzed independently in triplicate for each marker.
Primarily, human monocytic (THP-1) cells were induced to the M2-like phenotype using the methods and materials previously described. In particular, THP-1 cells were seeded into 96-well plates at a density of 60,000 cells/well. Cells were differentiated into unpolarized macrophages by 48h incubation with 200 nM PMA followed by 24 hours incubation in fresh RPMI medium. The resulting macrophages were polarized to an M2-like phenotype by incubation with 20 ng/ml IL-4, 20 ng/ml IL-13, and 5 ng/mL IL-6 for 48h. Cultures were maintained at 37° C. in a humidified 5% CO2 incubator.
In addition to the nonconjugated TLR7 agonist, conjugated compounds of the present disclosure were likewise evaluated. […] The cells were subsequently harvested for gene analysis by qPCR and the relative expression of CCL18 (FIG. 14A), CD206 (FIG. 14B), and IL-1β (FIG. 14C) analyzed.

[2] = test system: fibrotic lungs; assay: Staining of healthy and fibrotic lung sections (DAPI, anti-F4/80, anti-CD206); type: in vivo, mice; details: differences between treated groups
Source text: Sections from the same healthy and fibrotic lungs described in FIG. 6 were stained with DAPI (nuclei; blue), anti-F4/80 (macrophages; red), and anti-CD206 (M2 macrophage marker; green), and images were obtained with a Leica Versa 8 whole-slide scanner as described in Methods (n=2). Scale bars, 100 μm.

[3] = test system: healthy mice; assay: Plasma cytokine levels in healthy mice after tail vein injection; type: in vivo
Experimental: (FIGS. 20A-C) Measurement of plasma IL-6 (FIG. 20A), IFNα (FIG. 20B) and TNFα (FIG. 20C) (n=3). (FIGS. 20D-F). The effect of drug concentration on plasma levels of IL-6 (FIG. 20D), IFNα (FIG. 20E), and TNFα (FIG. 20F) was determined at 1.5h, 1h, or 1h after treatment, respectively (n=2) (FIG. 20G).
(FIGS. 36C and 36D). The effect of drug on plasma levels of IL-6 (FIG. 36C) and TNFα (FIG. 36D) was determined at 1 hour or 1.5 hours after treatment.

[4] = test system: M2-induced human monocyte-derived macrophages; assay: Reprogramming of M2-induced human monocyte-derived macrophages; type: cell-based; details: 100 nM, 2 hours + 46 hours, excess FA-glucosamine
Experimental: Changes in both sets of cytokines were inhibited by blockade of unoccupied folate receptors with excess FA-glucosamine (2+46h, competition).

[5] = test system: BM-induced mice
Experimental: Studies were also performed to determine if macrophages in pulmonary fibrotic lungs might be specifically targeted with folate-linked drugs in vivo. […] (The BM model is widely regarded to be helpful in terms of enabling mechanistic investigations relevant to fibrogenesis in an in vivo context.)
More specifically, eight-week-old C57BL6 male mice from Charles River (average weight 22 g to 25 g) were housed under pathogen-free conditions at room temperature (22° C.) under a 12 hours light-dark cycle. Mice were placed on a folate deficient chow (Envigo Teklad Global Rat Food Pellets) for 1 week prior to the BM or PBS instillation. Fresh water and folate-deficient diet were freely available. All animal procedures were approved by the Purdue Animal Care and Use Committee in accordance with National Institute of Health guidelines.
Thereafter, the mice were anesthetized with ketamine/xylazine and the necks of the mice were shaved using hair remover lotion and then sterilized with 70% alcohol. A small incision was made on the neck to visualize the trachea. Mice were positioned at a 75-degree angle and injected intratracheally with 100 μL sterile PBS or BM (Cayman Chemicals, Ann Arbor, MI; #13877) dissolved in PBS (0.75 mg/kg) using a 1 cc syringe with 26 G needle. Body weights were monitored every other day throughout the experiment.
After 2 hours, mice were sacrificed using CO2 asphyxiation and an incision in the skin from the abdomen to neck was immediately made to expose the lungs and trachea. A small cut in the upper trachea was then introduced for insertion of a blunted, 22-gauge needle, and a nylon string was tied around the trachea to seal the trachea around the needle. The trachea (containing the inserted needle), lungs and heart were then removed en masse by carefully cutting the connective tissue beneath the lungs, and the bronchus of left lung was clipped with a Dieffenbach vessel clip. The right lung was injected with PBS and aspirated 3 times using a 1 ml syringe, and the recovered lavage fluid was saved on ice.
Bronchoalveolar lavage fluid (BALF) was then analyzed to determine how the targeted TLR7 agonist works. BALF samples were centrifuged at 1500 rpm for 5 min at 4° C. and the supernatant was aliquoted and stored at −80° C. for cytokine/chemokine analyses. Cell pellets were resuspended and cultured in pre-warmed RPMI 1640 medium for 2 hours and then washed 3× with pre-warmed PBS prior to harvesting for qPCR assay. The right lung was then tied with a nylon string and used for subsequent analysis of hydroxyproline content. The left lung was inflated with 1 ml PBS using the inserted syringe and transferred to 10% formalin solution for subsequent histological analyses.
Lobes of the right lung collected above were weighed, placed in a pressure-tight vial (Supelco Inc., Bellefonte, PA; #27003), and hydrolyzed with 6N HCl (10 ml/g, v/w) in a sand bath at 120° C. for 3.5 hours. The hydrolyzed solution was cooled at 4° C. for 15 min and transferred to a 1.5 ml Eppendorf tube prior to centrifugation at 12,000 rcf for 15 min at 4° C. Supernatant was carefully collected, aliquoted and used for hydroxyproline (HYP) analysis.
For the subsequent HYP analysis, 10 μl of sample was transferred into a 96-well plate and neutralized with 10 μl of 5.3 M sodium hydroxide solution. Isopropanol (40 μl) was then added to each well followed by 20 μl of oxidation buffer and the mixture was incubated on a shaker at room temperature for 5 min. […]

[6] = Stability during incubation in culture media; type: physicochemical; details: 37° C. in the culture media, 48 hours
Experimental: Indeed, Compound 1B retained the original structure after 48 hours incubation.

[7] = test system: M2-induced THP-1 macrophages; assay: Secreted CCL18 and IL-1β in THP-1 macrophage supernatants by ELISA; type: cell-based, human
Experimental: FIGS. 6A-6D show graphical data representative of various marker levels measured from M2-induced THP-1 macrophages treated with different concentrations of drugs for 48 hours (FIGS. 6A and 6B) or for 2 hours, then displaced with fresh medium and cultured for the remaining 46 hours (FIGS. 6C and 6D). In both cases, cell supernatants were collected and secreted CCL18 protein and IL-1β was detected by ELISA.
CCL18 and IL-1β were quantified in induced THP-1 cell supernatants using a human DuoSet ELISA Development System (R&D Systems Europe, Abingdon, UK; #DY394-05) and an IL-1 beta Human ELISA Kit (Thermo Fisher Scientific, Waltham, MA; #BMS224-2) as described by manufactures. BALF samples were analyzed for mouse IFN-γ using ELISA MAX™ Deluxe (Biolegend, San Diego, CA; #430804).

[8] = 2 hours with drug, then drug-free medium
[9] = incubated continuously for 48 hours, ELISA

CCCCc1nc2c(N)nc3ccccc3c2n1CC(C)(C)OC(=O)OCCSSCC(NC(=O)CCC(NC(=O)c1ccc(NCc2cnc3nc(N)[nH]c(=O)c3n2)cc1)C(=O)O)C(=O)O (centres unmarked) [Compound 1B]
cancer/M2-type markers (CCL18, CD206, IL-1β, PDGFβ mRNA) ([1]; 2 hours incubation, harvested immediately or after further 46 hours): downregulated cancer/M2-type markers of macrophages more than Compound 1A | TNFα induction [1, 8]: dramatically improved | potency in reprogramming relative to comparator [1, 8]: superior potency relative to Compound 1A | M2 to M1 marker changes (FIGS. 3A-3F) ([1]; 48 hours incubation, various concentrations): same qualitative changes were observed, only the magnitude of the impact of Compound 1B was somewhat reduced | proinflammatory response in vivo (lung section staining) [2]: robust proinflammatory response | inflammatory cytokine release, dose comparison ([3]; effect of drug concentration, 1.5h, 1h or 1h after treatment): stimulates less inflammatory cytokine release than half the dose of Compound 1A | systemic cytokine release (plasma IL-6, IFNα, TNFα) ([3]; healthy mice, tail vein, 10 nmol): does not | downregulation of biomarkers in presence of competitor [4]: blocked | lung histology with increasing dose ([5]; 0, 1, 3 or 10 nmoles): lung histology improved | hydroxyproline content of lung hydrolysates, order of efficacy by dose ([5]; 0, 1, 3 or 10 nmoles every other day from day 10, day 21): 10 nmol/mouse>3 nmol/mouse>1 nmol/mouse>0 nmol/mouse | total number of BALF cells ([5]; different doses, day 21): decreased in a dose-dependent manner | collagen stain (Masson's trichrome) ([5]; tail vein injection): strongly suppressed | lung architecture (H&E staining) ([5]; treated beginning on day 10): lung architecture that resembles that of healthy mice | stability during incubation [6]: remained stable | reduction of secreted CCL18 and IL-1β, comparison of compounds ([7]; drug exposure limited to 2 hours, then 46 hours fresh medium): superior | secreted CCL18 polypeptide [7, 9]: reductions | secreted IL-1β polypeptide [7, 9]: reductions
